In ChEMBL document CHEMBL4651402, “Screening of ~5500 FDA-approved drugs and clinical candidates for anti-SARS-CoV-2 activity” (2021):

System: SARS-CoV-2
Assay: microbe, parasite or virus in culture
Details: Severe acute respiratory syndrome coronavirus 2, Vero C1008, 48 h

| SMILES | IC50 [µM] | IC50 (read-out: pIC50 (converted)) [µM] |
| --- | --- | --- |
| CN(C)CCC=C1c2ccccc2C(C)(C)c2ccccc21 | > 20 | > 20 |
| C[C@H](C(=O)O)c1ccc2cc(OCc3ccc4ccccc4n3)ccc2c1 | > 20 | > 20 |
| C[C@H]1CN([C@H]2CC[C@](C#N)(c3ccc(F)cc3)CC2)CC[C@@]1(C(=O)O)c1ccccc1 | > 20 | > 20 |
| CCN(CCNC(=O)Nc1ccccc1Br)c1cccc(C)c1 | > 20 | > 20 |
| CC12CCC3C(CC[C@H]4CC(O)CCC34C)C1CCC2O (some centres undefined) | > 20 | > 20 |
| CN[C@@H]1[C@@H](O[C@H]2O[C@H](CO)[C@@H](N)[C@H](O)[C@H]2O)O[C@H]2C[C@@H](N)[C@@H](O[C@H]3[C@H](O)[C@@H](O)[C@H](N)C[C@@H]3N)O[C@@H]2[C@@H]1O | > 20 | > 20 |
| O=S(=O)(O)CCN1CCN(CCO)CC1 | > 20 | > 20 |
| CC(=O)N[C@@H](CCC(N)=O)C(=O)O | > 20 | > 20 |
| O=C(O)/C=C/c1c[nH]cn1 | > 20 | > 20 |
| O=C(O)C1CCc2cc(C3CCCCC3)c(Cl)cc21 (centres undefined) | > 20 | > 20 |
| COc1cc2c(cc1O)CC1c3c(cc(O)c(OC)c3-2)CCN1C (centres undefined) | > 20 | > 20 |
| CN1CCCCC1c1ccc(-c2cccnc2)nc1 (centres undefined) | > 20 | > 20 |
| c1ccc2[nH]c(-c3nc4ccccc4[nH]3)nc2c1 | > 20 | > 20 |
| CN1N=C(N)c2cn(C3OC(COP(=O)(O)O)C(O)C3O)c3ncnc1c23 (centres undefined) | > 20 | > 20 |
| CC1(C)CN2C(=O)c3[nH]cnc3N(Cc3ccc(Cl)cc3)C2=N1 | > 20 | > 20 |
| COC(=O)C1=COC(C)C2C[n+]3ccc4c([nH]c5ccccc54)c3CC12 (centres undefined) | > 20 | > 20 |
| O=C(O)c1cccc(-c2noc(-c3ccccc3F)n2)c1 | > 20 | > 20 |
| CC1C(=O)OC2C(O)C34C5CC(C(C)(C)C)C36C(OC(=O)C6O)OC4(C(=O)O5)C12O (centres undefined) | > 20 | > 20 |
| CN[C@H](Cc1ccccc1)C(=O)N1CCC[C@H]1C(=O)N[C@H](C=O)CCCNC(=N)N | > 20 | > 20 |

| SMILES | IC50 [µM] | IC50 (read-out: pIC50 (converted)) [µM] |
| --- | --- | --- |
| CCC(=O)OC1(c2ccccc2)CCN(C)CC1 | > 20 | > 20 |
| CC(=O)N1CCN(c2ccc(OC[C@@H]3CO[C@](Cn4ccnc4)(c4ccc(Cl)cc4Cl)O3)cc2)CC1 | > 20 | > 20 |
| COc1ccnc2[nH]cc(C(=O)C(=O)N3CCN(C(=O)c4ccccc4)C[C@H]3C)c12 | > 20 | > 20 |
| CN(c1nc2ccccc2s1)C1CCN(C[C@@H](O)COc2ccc(F)c(F)c2)CC1 | > 20 | > 20 |
| O=C1C=CC(=O)c2c1ccc1c2ccc2ccccc21 | > 20 | > 20 |
| CNc1cccc(NC(=O)NC2N=C(c3ccccn3)c3ccccc3N(CC(=O)C(C)(C)C)C2=O)c1 (centres undefined) | > 20 | > 20 |
| CCC(=O)c1ccc(OCC(O)CN2CCN(c3ccccc3)CC2)cc1 (centres undefined) | > 20 | > 20 |
| O=C(O)CCCNC(=O)c1cccnc1 | > 20 | > 20 |
| CC(C)C(C)/C=C/C(C)C1CCC2C3=CC=C4CC(O)CCC4(C)[C@H]3CCC21C (some centres undefined) | > 20 | > 20 |
| CCC(=O)Nc1c(C)cc(C(=O)N2CCC(N(C)CCc3ccccc3)CC2)cc1C | > 20 | > 20 |
| CC(=O)C1CCC2C3CC[C@H]4C[C@H](O)CCC4(C)C3C(=O)CC12C (some centres undefined) | > 20 | > 20 |
| CCN(CC)CCOC(=O)C(c1ccccc1)C1(O)CCCC1 (centres undefined) | > 20 | > 20 |
| COc1cc(C)c2c(c1C=O)Oc1c(c(C)c(O)c3c1[C@H](O)OC3=O)OC2=O | > 20 | > 20 |
| CC1(C)SC2C(/N=C/N3CCCCCC3)C(=O)N2C1C(=O)O (centres undefined) | > 20 | > 20 |
| CC(=O)/C=C(\C)NCCN/C(C)=C/C(C)=O | > 20 | > 20 |
| CC(=O)OCC(=O)C12N=C(C)OC1CC1C3CCC4=CC(=O)C=CC4(C)C3(F)C(O)CC12C (centres undefined) | > 20 | > 20 |
| CCN1C[C@]2(COC)CC[C@H](O)[C@]34C5C[C@@H]6[C@@H](OC)C[C@@](O)(C5[C@H]6OC)[C@@](O)([C@H]13)[C@@H](OC)C24 (some centres undefined) | > 20 | > 20 |
| CC1=CC(=O)C2=C(C)CCC3[C@H](C)C(=O)O[C@@H]3[C@@H]12 (some centres undefined) | > 20 | > 20 |
| CCN(CC)CC(=O)OCC(=O)C1(O)CCC2C3CCC4=CC(=O)CCC4(C)C3C(O)CC21C (centres undefined) | > 20 | > 20 |

| SMILES | IC50 [µM] | IC50 (read-out: pIC50 (converted)) [µM] |
| --- | --- | --- |
| CC(C)CCCC(C)C1CCC2C3C(=O)C=C4CC(O)CCC4(C)C3CCC12C (centres undefined) | > 20 | > 20 |
| CC1(O)CCC2C3CCC4=CC(=O)CCC4C3CCC21C (centres undefined) | > 20 | > 20 |
| C[C@H](COC(=O)[C@@H](N)Cc1ccc(O)c(O)c1)OC(=O)c1ccccc1 | > 20 | > 20 |
| CCC(/C=C/C(C)C1CCC2C3CC=C4CC(O)CCC4(C)C3CCC12C)C(C)C (centres undefined) | > 20 | > 20 |
| CC(C)(C)OC(=O)N1CCC[C@H]1CO | > 20 | > 20 |
| CC(=O)OC1C([N+]2(C)CCCCC2)CC2C3CC[C@H]4C[C@H](OC(C)=O)C([N+]5(C)CCCCC5)CC4(C)C3CCC21C (some centres undefined) | > 20 | > 20 |
| CCN(CC)C(=O)C1C=C2c3cccc4[nH]cc(c34)CC2N(C)C1 (centres undefined) | > 20 | > 20 |
| CC12CC(=O)C3C(CC[C@H]4CC(O)CCC34C)C1CCC2C(=O)CO (some centres undefined) | > 20 | > 20 |
| C=C1[C@@H](C)[C@H]2[C@H](Cc3ccccc3)NC(=O)[C@]23OC(=O)/C=C\[C@H](O)CCC[C@@H](C)C/C=C\[C@H]3[C@@H]1O | > 20 | > 20 |
| O=C(Cn1c2ccccc2c2c(N3CCCC3)nc(N3CCCC3)nc21)N1CCCC1 | > 20 | > 20 |
| CC1(C)Oc2ccc(OC(F)(F)F)cc2[C@@H](N2Cc3ccccc3C2=O)C1O (some centres undefined) | > 20 | > 20 |
| COc1ccc2c3c1O[C@H]1[C@@H](O)C=C[C@@]4(O)[C@@H](C2)N(C)CC[C@]314 | > 20 | > 20 |
| COCC(=O)Nc1ccc(/N=C(\C)N(C)C)cc1 | > 20 | > 20 |
| CN1[C@@H]2C[C@@H](OC(=O)[C@@](O)(CO)c3ccccc3)C[C@H]1[C@@H]1O[C@@H]12 | > 20 | > 20 |
| CC(C)[C@H](O)C(=O)N[C@@H](C)C(=O)N[C@@H]1C(=O)N(C)CCc2ccccc21 | > 20 | > 20 |
| CC(C)(C)NC(=O)[C@@H]1CN(Cc2cccnc2)CCN1C[C@@H](O)C[C@@H](Cc1ccccc1)C(=O)N[C@H]1c2ccccc2C[C@H]1O | > 10 | > 10 |
| Cc1cccc(C)c1NC(=O)NCCCNC(C)C | > 20 | > 20 |
| Cc1cccc(Cl)c1C(=O)N[C@@H](Cc1ccc(NC(=O)c2c(Cl)cccc2Cl)cc1)C(=O)O | > 20 | > 20 |
| C=C1CC[C@@]2(O)[C@H]3Cc4ccc(O)c5c4[C@@]2(CCN3CC2CC2)[C@H]1O5 | > 20 | > 20 |
